# Measured values reported in paper PMC3368886, “ATPase Cycle and DNA Unwinding Kinetics of RecG Helicase” (PLoS ONE, 2012).
# Several values for one entry are separate records, joined by “and”; a condition that tells them apart may be missing. Equal entries are not always repeated.
# Legend:
# RecG [1] = biological target: T1, RecG (Thermotoga maritima, UniProt Q9WY48); assay: Steady-state ATPase rate measurements with phosphate biosensor MDCC-PBP; format: biochemical; settings: no DNA, 20°C, 10 nM RecG
# T1 construct: made in house
# T1 sequence (Q9WY48 1-780): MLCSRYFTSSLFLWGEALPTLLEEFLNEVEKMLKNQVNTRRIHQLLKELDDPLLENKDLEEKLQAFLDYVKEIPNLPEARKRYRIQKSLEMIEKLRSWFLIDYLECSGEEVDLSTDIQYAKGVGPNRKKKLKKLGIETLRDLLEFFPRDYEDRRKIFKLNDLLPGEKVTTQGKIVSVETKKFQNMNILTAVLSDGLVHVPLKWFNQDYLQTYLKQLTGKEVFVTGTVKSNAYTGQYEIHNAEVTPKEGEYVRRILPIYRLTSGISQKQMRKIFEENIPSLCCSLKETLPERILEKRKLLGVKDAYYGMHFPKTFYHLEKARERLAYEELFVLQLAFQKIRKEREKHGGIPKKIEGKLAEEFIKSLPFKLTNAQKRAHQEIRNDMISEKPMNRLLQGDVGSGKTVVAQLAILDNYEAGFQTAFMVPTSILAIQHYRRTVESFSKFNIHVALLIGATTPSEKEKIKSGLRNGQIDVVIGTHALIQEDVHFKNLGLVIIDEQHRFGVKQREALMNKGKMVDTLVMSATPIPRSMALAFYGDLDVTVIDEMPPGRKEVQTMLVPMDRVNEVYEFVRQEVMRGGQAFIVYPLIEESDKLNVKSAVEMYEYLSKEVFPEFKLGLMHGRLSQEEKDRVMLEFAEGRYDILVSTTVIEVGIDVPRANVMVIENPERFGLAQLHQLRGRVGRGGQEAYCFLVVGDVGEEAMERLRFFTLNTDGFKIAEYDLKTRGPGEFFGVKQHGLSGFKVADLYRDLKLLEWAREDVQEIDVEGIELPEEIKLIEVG
# RecG [2] = biological target: T1, RecG; assay: Double-mix stopped-flow: RecG⋅mantATP then mixed with DNA; format: biochemical; settings: RecG + mantATP aged 1 s, then mixed with DNA junction (A40:B40)
# Experimental: (§1) Figure 4 Kinetic measurement of mantATP with excess of RecG and DNA: binding, hydrolysis and Pi release. The concentrations for all experiments were 0.5 µM mantATP, 2.5 µM RecG, 5 µM DNA (A40:B40) and 10 µM MDCC-PBP (for Pi measurement). All measurements were carried out at 20°C in the buffer described in Materials and Methods. (A) Time course of mant fluorescence (solid line), mantADP formation (circles) and Pi release (dashed line), measured as described in materials and methods. […] (B) Simulation of these time courses, based upon a global model for a single turnover of mantATP as described in the text. (C) The time course of mant fluorescence upon mixing 0.5 µM mantATP and 2.5 µM RecG with 5 µM DNA junction (A40:B40) after a first mixing of 5 µM RecG and 1 µM mantATP and aging for 1 s.
# As the cleavage step is so slow in the absence of DNA, a double-mix, stopped-flow experiment was performed in order to see if the biphasic increase in mant fluorescence could be separated into the individual processes of mantATP binding and hydrolysis. An excess of RecG was mixed with mantATP and this mix aged for 1 s to allow binding but not hydrolysis. This solution was then mixed with DNA. […] This rate was similar to that of the slower phase, measured above, consistent with this phase being due to DNA-induced hydrolysis.
# RecG [3] = biological target: T1, RecG; assay: Titrations of RecG into fluorescent nucleotides in the absence of DNA; format: binding
# Experimental: The two phases of this fluorescence increase with excess RecG⋅DNA would therefore relate to formation of bound mantATP (1.5-fold intensity increase relative to free nucleotide) and bound mantADP (4.9-fold). This interpretation was supported by titrations of RecG into the fluorescent nucleotides in the absence of DNA.
# Steady-state fluorescence was measured using a Cary Eclipse fluorimeter (Varian) with a xenon light source. Absorbance spectroscopy was performed using a Beckman DU640 spectrophotometer.
# RecG⋅DNA(A40:B40) [4] = biological target: T2, RecG⋅DNA(A40:B40) (Thermotoga maritima, UniProt Q9WY48); assay: Single turnover Pi release kinetics with MDCC-PBP; format: biochemical
# T2 construct: made in house
# T2 sequence (Q9WY48 1-780): T1 sequence (Q9WY48 1-780)
# Experimental: Using the phosphate biosensor, MDCC-PBP [13], the kinetics of Pi release were measured under the same conditions (Figure 4A). Fitting the trace by a lag then a single exponential increase gave rate constants of 3.3 s^−1 and 0.21 s^−1. This rate constant for the lag was similar to the observed rate constant for binding at this concentration. The exponential increase had the same rate constant for the slow phase of the mant fluorescence and for the quench-flow measurement of mantADP formation. Thus Pi release occurs rapidly, following the rate-determining cleavage step.
# (§2) Stopped-flow experiments were performed in a HiTech SF61DX2 apparatus (TgK Scientific Ltd, Bradford-on-Avon, UK) with a mercury-xenon light source and HiTech KinetAsyst 3 or Kinetic Studio 1 software. For MDCC-PBP fluorescence, the excitation wavelength used was 436 nm and a 455 nm cut-off filter (Schott glass) used to collect emitted light. The signal was calibrated using known concentrations of Pi. The solutions contained the Pi mop, to minimize phosphate contamination and comprising 0.01 unit ml^−1 bacterial purine nucleoside phosphorylase and 200 µM 7-methylguanosine. For mant fluorescence, 366 nm was used to excite and a 400 nm cut-off filter (Schott glass) used to collect light. Measurements of Cy3 fluorescence used 547 nm excitation and a 570 nm cut-off filter. In experiments described, the quoted concentrations are those in the mixing chamber, except where stated. Data were fitted to theoretical curves using the HiTech software or Grafit.
# RecG⋅DNA(A40:B40) [5] = biological target: T2, RecG⋅DNA(A40:B40); assay: Single turnover mant fluorescence, excess RecG⋅DNA over mantATP; format: biochemical
# Experimental: Extra information relating to changes in a single ATPase cycle can be obtained by mixing excess RecG⋅DNA(A40:B40) with mantATP (Figure 4A). […] The first change in fluorescence is presumably due to binding. After fitting to a double exponential, the observed rate constant for the initial change was linearly dependent on RecG concentration over the small range possible (0.5 µM –2.5 µM), limited by protein precipitation at higher concentrations. Due to the low concentrations, a hyperbolic dependence would not be observed. The observed rate constant of the second increase in fluorescence, 0.22 (±0.05) s^−1 (Figure 4A), was independent of RecG concentration. This second phase is likely to be due to the cleavage step, leading to the formation of bound mantADP.
# as §1, §2
# RecG [6] = biological target: T1, RecG; assay: Phosphate-water oxygen exchange during hydrolysis; format: biochemical; settings: 20°C, Table 2 summary
# [7] = 0.5 µM mantATP, 2.5 µM RecG, 5 µM DNA
SMILES,K m (RecG [1]),k cat (RecG [1]),rate constant of single exponential increase in mant fluorescence (RecG [2]),increase in fluorescence on titration with RecG (RecG [3]) [fold],Pi release: rate constant of exponential increase (RecG⋅DNA(A40:B40) [4]; [7]) [s⁻¹],Pi release: rate constant of lag (RecG⋅DNA(A40:B40) [4]; [7]) [s⁻¹],"k +3 (Pi release) (RecG⋅DNA(A40:B40) [4]; 20°C, Table 2 summary) [s⁻¹]","observed rate constant of the second increase in fluorescence (RecG⋅DNA(A40:B40) [5]; 0.5 µM mantATP, excess RecG⋅DNA, independent of RecG concentration)",k +2 (cleavage step) (RecG⋅DNA(A40:B40) [5]; 20°C),initial small increase in fluorescence as part of overall change (RecG⋅DNA(A40:B40) [5]; excess RecG⋅DNA over mantATP) [%],fluorescence intensity increase of bound nucleotide relative to free nucleotide (RecG⋅DNA(A40:B40) [5]; excess RecG⋅DNA(A40:B40)) [fold],k −2 (reverse of cleavage) (RecG [6]) [s⁻¹]
Nc1ncnc2c1ncn2[C@@H]1O[C@H](COP(=O)(O)OP(=O)(O)OP(=O)(O)O)[C@@H](O)[C@H]1O [ATP],7.5 (±3.1) µM,0.2 (±0.1) s^−1,,,,,,,,,,
"CNc1ccccc1C(=O)O[C@H]1[C@@H](O)[C@H](n2cnc3c(N)ncnc32)O[C@@H]1COP(=O)(O)OP(=O)(O)OP(=O)(O)O [mantATP, 2′(3′)-O-(N-methylanthraniloyl)ATP]",,,0.3 (±0.04) s^−1,1.3,0.21,3.3,>10,0.22 (±0.05) s^−1,0.2 s⁻¹ and 0.22 s⁻¹,~20,1.5,<0.01
